Test results reported in patent US11919902B2, “Aryl-bipyridine amine derivatives as phosphatidylinositol phosphate kinase inhibitors” (HiberCell, Inc., priority 2017, dated 2024).
“And” between values parts separate entries of the source, which are not always exact repeats. Identical values can stand only once.

Experiments:
GST tagged PIP4KtypeIIA = molecular target: T1, GST tagged PIP4KtypeIIA (Homo sapiens, UniProt P48426); assay: ADP-glo kinase assay PIP4K 2A (PIP4KtypeIIA inhibition assay); assay type: biochemical; settings: Table 3; compounds listed under IC50 range headings; 10 uM ATP, 0.5 nM PIP4KIIA
T1 construct: made in house; host or cells: E. coli
T1 sequence (P48426 1-406): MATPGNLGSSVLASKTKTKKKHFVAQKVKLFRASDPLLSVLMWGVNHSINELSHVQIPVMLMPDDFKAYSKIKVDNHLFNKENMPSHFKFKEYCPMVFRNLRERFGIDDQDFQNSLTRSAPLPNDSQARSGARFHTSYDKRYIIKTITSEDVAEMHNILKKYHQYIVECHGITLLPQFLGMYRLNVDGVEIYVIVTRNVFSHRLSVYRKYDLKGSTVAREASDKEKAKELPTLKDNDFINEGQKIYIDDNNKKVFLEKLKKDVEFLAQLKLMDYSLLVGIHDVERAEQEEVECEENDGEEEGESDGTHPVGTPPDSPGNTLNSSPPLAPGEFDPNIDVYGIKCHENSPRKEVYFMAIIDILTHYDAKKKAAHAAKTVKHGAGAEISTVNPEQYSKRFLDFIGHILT
Excerpt: GST tagged PIP4KtypeIIA and B enzymes were overexpressed in E. Coli and purified to >80% homogeneity. Phosphatidyl inositol-5-phosphate (PI5P, Cat. #850152, Avanti Polar Lipids Inc.) was used as the lipid substrate and phosphatidyl ethanolamine (DOPE 18:1, Cat. #850725, Avanti Polar Lipids Inc.) was used as the carrier lipid for assays. Ultrapure ATP and GTP was purchased from Bellbrooke Labs. ADP Glo reagents were obtained from Promega. Transcreener FI reagent was obtained from Bellbrooke labs.
1. HEPES buffer mix: 200 mM HEPES pH 7.4, 50 mM MgCl2, 0.05% v/v triton×100
2. HNE buffer: 20 mM HEPES, pH 7.4, 100 mM NaCl, 0.5 mM EGTA
3. H:E buffer: 30 mM HEPES, pH 7.4, 1 mM EGTA
Enzyme preparation: GST-tagged PIP4KtypeIIA (5 uL, 1.43 mg/mL) was diluted (1:10) to 50 uL using HNE buffer. From the 1:10 diluted stock, a 6.4 uL aliquot was diluted further to 5 mL using HNE buffer to yield 5× enzyme stock (2.5 nM).
Lipid Preparation: In a 10 mL pyrex glass vial, lug of PI5P and lug of DOPE were suspended in 2.5 mL of HEPES buffer mix and 2.5 mL of H:E buffer. The contents were mixed and sonicated for 3 min to yield a translucent lipid stock.
Compound Preparation: Compounds were stored as 5 mM stocks in neat DMSO as room temperature in glass vials. 5 mM stocks were diluted to 2 mM and then serially diluted (3×) in neat DMSO in 96 well polypropylene plates. From the serially diluted stocks, 3 uL was delivered into 250 uL of 25% DMSO (in water) to generate 5× compound stocks. Typically, the highest compound conc. was 24 uM.
The assay volume was kept at 25 uL. To each well of the reaction plate, 10 uL of lipid stock (1:1 ratio PI5P:DOPE) was delivered. This was followed by the addition of 5 uL of compound in 25% DMSO. Then, to each well, 5 uL of 2.5 nM (5×) typeIIA enzyme was delivered. The contents were mixed well and incubated for 1 h at 27 C. After 1 h, reaction was initiated by adding 5 uL of 50 uM ATP and the contents were mixed well with a multi-channel pipetteman. The final concentration of the reagents are as follows: 50 mM HEPES, pH 7.3, 10 mM MgCl2, 20 mM NaCl, 0.01% v/v triton-X100, 5% DMSO, 10 uM ATP, 80 uM (2 ug) PI5P, 2 ug DOPE, and 0.5 nM PIP4KIIA. Typically, the highest conc. of compounds was 4.8 uM and the lowest conc. was 0.
After 1 hr, the reaction was quenched by adding 25 uL of ADP Glo reagent. The contents were incubated for 1 hr. Afterwards, 50 uL of kinase detection reagent was delivered. The contents were incubated for another hour. The luminescence was read using Molecular Devices Paradigm plate reader. […] The blanks were averaged and subtracted from all other wells. Using a calibration curve, RLU was converted to uM ADP (product). IC50 was calculated by plotting the residual activity (expressed as % No inhibitor control) vs. log [Inh. conc.]

GST tagged PIP4KtypeIIB = molecular target: T2, GST tagged PIP4KtypeIIB (Homo sapiens, UniProt P78356); assay: Trans-FI P kinase assay PIP4K2B (PIP4KtypeIIB inhibition assay); assay type: biochemical; settings: Table 4; compounds listed under IC50 range headings; 100 uM GTP, 5 nM PIP4KIIB; read-out: Trans-FI P kinase assays: PIP4K2B IC50
T2 construct: made in house; host or cells: E. coli
T2 sequence (P78356 1-416): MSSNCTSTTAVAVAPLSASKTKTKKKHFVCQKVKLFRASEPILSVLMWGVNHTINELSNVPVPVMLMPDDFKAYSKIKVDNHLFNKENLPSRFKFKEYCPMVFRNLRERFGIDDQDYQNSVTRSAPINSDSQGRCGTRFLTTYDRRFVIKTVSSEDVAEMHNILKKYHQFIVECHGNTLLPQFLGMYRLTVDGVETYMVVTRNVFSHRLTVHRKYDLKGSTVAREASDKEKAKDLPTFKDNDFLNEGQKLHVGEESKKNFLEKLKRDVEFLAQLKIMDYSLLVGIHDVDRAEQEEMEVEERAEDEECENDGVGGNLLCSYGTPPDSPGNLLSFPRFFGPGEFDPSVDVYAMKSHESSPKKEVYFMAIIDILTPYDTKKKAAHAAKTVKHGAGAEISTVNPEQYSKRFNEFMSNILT
Method in brief: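 Purified GST-PIP4KIIB (5 nM final), 1 h preincubation with compound at 27 C, then 2 h reaction with 100 uM GTP and 80 uM PI5P plus DOPE carrier lipid in pH 7.3 HEPES/MgCl2/Triton buffer with 5% DMSO. GDP read by Transcreener FI fluorescence against a calibration curve; IC50 from % no-inhibitor activity vs log concentration.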

Row | SMILES | IC50 (GST tagged PIP4KtypeIIA) | IC50 (GST tagged PIP4KtypeIIB)
1 | C[C@H]1CC(=O)N(c2ccc(-c3cncc(-c4ccnc5c4cc4n5CCN(C)C4=O)c3)cc2)C1 [Example 199, (S)-7-methyl-4-(5-(4-(4-methyl-2-oxopyrrolidin-1-yl)phenyl)pyridin-3-yl)-8,9-dihydropyrido[3′,2′:4,5]pyrrolo[1,2-a]pyrazin-6(7H)-one] | 100 to 1000 nM | 10 to 100 nM
2 | CN1CCn2c(cc3c(-c4cncc(-c5ccc(N6CC(C)(C)CC6=O)cc5)c4)ccnc32)C1=O [Example 200, 4-(5-(4-(4,4-dimethyl-2-oxopyrrolidin-1-yl)phenyl)pyridin-3-yl)-7-methyl-8,9-dihydropyrido[3′,2′:4,5]pyrrolo[1,2-a]pyrazin-6(7H)-one] | 100 to 1000 nM | 10 to 100 nM
3 | CN1CCn2c(cc3c(-c4cncc(-c5ccc(N6CC7(CC7)CC6=O)cc5)c4)ccnc32)C1=O [Example 201, 7-methyl-4-(5-(4-(6-oxo-5-azaspiro[2.4]heptan-5-yl)phenyl)pyridin-3-yl)-8,9-dihydropyrido[3′,2′:4,5]pyrrolo[1,2-a]pyrazin-6(7H)-one] | 100 to 1000 nM | 10 to 100 nM
4 | CN1CCn2c(cc3c(-c4cncc(-c5ccc(N6C(=O)Cc7ccccc76)cc5)c4)ccnc32)C1=O [Example 202, 7-methyl-4-(5-(4-(2-oxoindolin-1-yl)phenyl)pyridin-3-yl)-8,9-dihydropyrido[3′,2′:4,5]pyrrolo[1,2-a]pyrazin-6(7H)-one] | > 5000 nM | > 5000 nM
5 | O=C(Nc1ccc(-c2cncc(-c3ccnc4[nH]ncc34)c2)cc1)C(=O)N1CC2CCC1C2 (stereo not drawn) [Example 203, N-(4-(5-(1H-pyrazolo[3,4-b]pyridin-4-yl)pyridin-3-yl)phenyl)-2-(2-azabicyclo[2.2.1]heptan-2-yl)-2-oxoacetamide] | 100 to 1000 nM | 2500 to 5000 nM
6 | O=C(Nc1ccc(-c2cncc(-c3ccnc4[nH]ncc34)c2)cc1)C(=O)N1C2CCC1CC2 [Example 204, N-(4-(5-(1H-pyrazolo[3,4-b]pyridin-4-yl)pyridin-3-yl)phenyl)-2-(7-azabicyclo[2.2.1]heptan-7-yl)-2-oxoacetamide] | 100 to 1000 nM | > 5000 nM
7 | O=C(Nc1ccc(-c2cncc(-c3ccnc4[nH]ncc34)c2)cc1)c1cc(C2CCC2)on1 [Example 205, N-(4-(5-(1H-pyrazolo[3,4-b]pyridin-4-yl)pyridin-3-yl)phenyl)-5-cyclobutylisoxazole-3-carboxamide] | > 5000 nM | 100 to 1000 nM and > 5000 nM
8 | CN(C(=O)c1ccc(-c2cncc(-c3ccnc4[nH]ncc34)c2)cc1)c1cccc(-n2ccnn2)c1 [Example 206, N-(3-(1H-1,2,3-triazol-1-yl)phenyl)-4-(5-(1H-pyrazolo[3,4-b]pyridin-4-yl)pyridin-3-yl)-N-methylbenzamide] | > 5000 nM | > 5000 nM
9 | O=C1CCCN1c1ccc(-c2cncc(-c3ccnc4c3cc3n4CCN(c4ccccn4)C3=O)c2)cc1 [Example 207, 4-(5-(4-(2-oxopyrrolidin-1-yl)phenyl)pyridin-3-yl)-7-(pyridin-2-yl)-8,9-dihydropyrido[3′,2′:4,5]pyrrolo[1,2-a]pyrazin-6(7H)-one] | 10 to 100 nM | 10 to 100 nM
10 | Cc1cccc2c1CC(=O)N2c1ccc(-c2cncc(-c3ccnc4c3cc3n4CCN(C)C3=O)c2)cc1 [Example 208, 7-methyl-4-(5-(4-(4-methyl-2-oxoindolin-1-yl)phenyl)pyridin-3-yl)-8,9-dihydropyrido[3′,2′:4,5]pyrrolo[1,2-a]pyrazin-6(7H)-one] | > 5000 nM | > 5000 nM
11 | CCc1cccc2c1CC(=O)N2c1ccc(-c2cncc(-c3ccnc4c3cc3n4CCN(C)C3=O)c2)cc1 [Example 209, 4-(5-(4-(4-ethyl-2-oxoindolin-1-yl)phenyl)pyridin-3-yl)-7-methyl-8,9-dihydropyrido[3′,2′:4,5]pyrrolo[1,2-a]pyrazin-6(7H)-one] | > 5000 nM | 1000 to 2500 nM
12 | CN(C)C(=O)c1ccc(-c2cc(-c3cc(Nc4cc(N)ccn4)ncn3)cnc2N)nc1 [Example 222, 2′-amino-5′-(6-((4-aminopyridin-2-yl)amino)pyrimidin-4-yl)-N,N-dimethyl-[2,3′-bipyridine]-5-carboxamide] | > 5000 nM | 2500 to 5000 nM
13 | CN(C)C(=O)c1ccc(-c2cc(-c3ccnc4[nH]c(C(=O)N[C@H]5COC[C@H]5N)cc34)cnc2N)nc1 [Example 226, 4-(2′-amino-5-(dimethylcarbamoyl)-[2,3′-bipyridin]-5′-yl)-N-((3R,4S)-4-aminotetrahydrofuran-3-yl)-1H-pyrrolo[2,3-b]pyridine-2-carboxamide] | 1000 to 2500 nM | 10 to 100 nM
14 | COCCNC(=O)c1cc2c(-c3cncc(-c4ccc(N5CCCC5=O)cc4)c3)ccnc2[nH]1 [Example 228, N-(2-methoxyethyl)-4-(5-(4-(2-oxopyrrolidin-1-yl)phenyl)pyridin-3-yl)-1H-pyrrolo[2,3-b]pyridine-2-carboxamide] | 100 to 1000 nM | 10 to 100 nM
15 | O=C(c1cc2c(-c3cncc(-c4ccc(N5CCCC5=O)cc4)c3)ccnc2[nH]1)N1CCOCC1 [Example 229, 1-(4-(5-(2-(morpholine-4-carbonyl)-1H-pyrrolo[2,3-b]pyridin-4-yl)pyridin-3-yl)phenyl)pyrrolidin-2-one] | 100 to 1000 nM | 100 to 1000 nM
16 | O=C(NCc1ccccc1)c1cc2c(-c3cncc(-c4ccc(N5CCCC5=O)cc4)c3)ccnc2[nH]1 [Example 232, N-benzyl-4-(5-(4-(2-oxopyrrolidin-1-yl)phenyl)pyridin-3-yl)-1H-pyrrolo[2,3-b]pyridine-2-carboxamide] | 100 to 1000 nM | 10 to 100 nM
17 | O=C(NCc1ccncc1)c1cc2c(-c3cncc(-c4ccc(N5CCCC5=O)cc4)c3)ccnc2[nH]1 [Example 233, 4-(5-(4-(2-oxopyrrolidin-1-yl)phenyl)pyridin-3-yl)-N-(pyridin-4-ylmethyl)-1H-pyrrolo[2,3-b]pyridine-2-carboxamide] | 100 to 1000 nM | 10 to 100 nM
18 | CC(C)CNC(=O)c1cc2c(-c3cncc(-c4ccc(N5CCCC5=O)cc4)c3)ccnc2[nH]1 [Example 234, N-isobutyl-4-(5-(4-(2-oxopyrrolidin-1-yl)phenyl)pyridin-3-yl)-1H-pyrrolo[2,3-b]pyridine-2-carboxamide] | 100 to 1000 nM | 10 to 100 nM
